Measured values: US11974551B2, “L-serine compositions, methods and uses for treating neurodegenerative diseases and disorders” (priority 2011, dated 2024)
Entries after “also recorded” stand apart in the source; their conditions may differ.

Legend:
[1] = mice, single injection (Karlsson et al. 2009); cited from earlier work
[2] = tested on: MRC-5 cells; assay: Incorporation of 3H-BMAA radiolabel into cell proteins (TCA precipitation, liquid scintillation counting); format: cell-based, human; details: 16 hours
Description: MRC-5 cells were incubated with ^3H-BMAA (31.25 nM) in HBSS containing 10% FCS. After 2, 4, and 16 hours, cells were washed three times in phosphate buffered saline and lysed by freeze-thawing in Triton X-100. The protein concentration in the lysate was determined using the bicinchoninic acid assay (BCA) (Smith, et al., Anal Biochem 150, 76-85 (1985)) (and radiolabel in the cell lysate quantified by liquid scintillation counting (LSC). Cell proteins were then isolated by trichloroacetic acid (TCA) (5%) precipitation washed three times in TCA (5%) and dissolved in formic acid.
To determine if incorporation of radiolabel into proteins was protein synthesis dependent MRC-5, SH-SY5Y and HUVEC cells were incubated with ^3H-BMAA (31.25 nM) with or without CHX 2 μg/ml for 16 hours. The amount of radiolabel present in cell proteins in the CHM-treated cultures was expressed relative to that of control cultures, which was set at 100%. Parallel cultures of MRC-5 cells were incubated with ^3H-leucine (41 nM) with or without CHX 2 μg/ml under identical culture conditions and processed as before.
To examine the ability of individual amino acids to reduce incorporation or radiolabel into proteins, MRC-5 cells were incubated with ^3H-BMAA (31.25 nM) for 16 hours in the presence of individual amino acids (250 μM) and the radiolabel present in the cell proteins assessed as before. All of the 20 protein amino acids (L-isomers) were examined individually in triplicate cell cultures. […] Incorporation of radiolabel was determined relative to cells incubated in medium containing no serine. MRC-5 cells were then incubated with ^3H-BMAA (31.25 nM) for 16 hours in HBSS alone, HBSS containing all 20 protein amino acids (400 μM) or 19 protein amino acids except L-serine and the amount of radiolabel in cell protein assessed as before.

[3] = tested on: MRC-5 cells; assay: Autofluorescence imaging of cells; format: cell-based, human; details: BMAA 300 μM, 96 hours
Description: MRC-5 cells were incubated in DMEM supplemented with 300 μM BMAA in the presence or absence of 300 μM L-serine for 96 hours with daily medium changes. Cellular autofluorescence was visualized using an inverted fluorescent microscope (Olympus IX71) as described previously (Dunlop, et al., Biochem J 410, 131-140 (2008)).

[4] = tested on: zebrafish; assay: Zebrafish swimming performance (critical swimming speed, time to fail); format: in vivo, zebrafish (Dario rerio); details: single yolk injection of BMAA, fish reared 3 months, compared to control fish, p<0.001
Description: (§1) BMAA was directly injected through the chorion into the yolk, allowing it to directly compete with L-serine for incorporation into newly synthesized proteins in the developing fish. BMAA (100 mg/ml in water) or water were delivered by an automated Picospritzer pump set to deliver 5 nL per injection into the yolk ([…]) of zebrafish immediately after being fertilized. Fish were left to develop for 30 hours in standard conditions.
(§2) Surviving fish were reared in an aquarium equipped with biological filtration and temp control set at 28° C. for 3 months. BMAA-treated and control fish from the same parents were reared in the same tanks, then separated based on fluorescent tag prior to swimming assessment. After 3 months all healthy adult fish with no deformations or abnormalities were examined. Critical swimming speed was determined, defined as the maximum swimming velocity that can be sustained for a set period in a water tunnel. Water was pumped from a reservoir (EcoTech Marine MP10 VorTech® Propeller Pump with EcoSmart Driver) through 50 mm diameter tubing. […] The difference in total motor neuron length was quantitated by measuring the first ten motor neuron projections marked before the end of the yolk extension (Paquet D. et al., J. Clin. Invest. 119:1382 (2009)). […] Data was collated in GraphPad Prism (version 6 for OSX) and statistical significance calculated using a Student's T-test. […]

[5] = tested on: Drosophila fruit flies; assay: Fruit fly feeding: mortality after three days; format: in vivo, Drosophila melanogaster; details: media with 25 mM BMAA, after three days
Description: Preliminary studies show the ability of L-Serine to prevent misincorporation of BMAA into proteins. In a series of feeding experiments, Drosophila fruit flies were fed four different types of media: 1) standard fruit fly media with 0 mM BMAA (control), 2) media enriched with 25 mM L-Serine, 3) media with 25 mM BMAA added, and 4) media with both 25 mM BMAA and 25 mM L-Serine added for three days of feeding. Misincorporation of BMAA into proteins was then analyzed using triple quadrupole LC/MS/MS and Orbital Trap LC/MS/MS.
Equally interesting is the analysis of the protective value of L-Serine on Drosophila dosed with BMAA. Fruit flies fed with BMAA enriched media (third set of blocks) suffered a 40% mortality after three days, while flies fed with Serine plus BMAA (fourth set of blocks) had no mortality (FIG. 8). These flies were rescued by L-Serine.

[6] = Radio-labeled BMAA brain entry and insertion into neuroproteins; format: in vivo; details: tritiated and 14C-labeled BMAA, rats
Excerpt: Studies testing to determine if L-Serine blocks the misincorporation of radio-tagged BMAA into rodent brains are undertaken.

[7] = tested on: zebrafish; assay: Zebrafish egg yolk injection: survival; format: in vivo, zebrafish (Dario rerio); details: BMAA 100 mg/ml in water, 5 nL injected into yolk after fertilization, 30 hours; control 91%
Description: as §1

[8] = tested on: MRC-5 cells; assay: Lactate dehydrogenase (LDH) release assay; format: cell-based, human; details: BMAA-treated cells
Description: (§3) Lactate dehydrogenase release from cells was determined as described previously (Tang, et al., Phytother Res 25, 417-423 (2010)).

[9] = tested on: SH-SY5Y cells; assay: Lactate dehydrogenase (LDH) release assay; format: cell-based, human; details: BMAA-treated cells
Description: as §3

[10] = tested on: SH-SY5Y cells; assay: Annexin V binding (apoptosis) by flow cytometry; format: cell-based, human
Description: Late-stage apoptosis or necrosis was measured by simultaneous staining with propidium iodide and Annexin V using the BD Pharmingen™ Annexin V—FITC apoptosis detection kit and flow cytometry performed as described previously (Dunlop, et al., Biochem J 435, 207-216 (2010)).

[11] = tested on: MRC-5 cells; assay: Acridine orange/ethidium bromide dual-staining of cells; format: cell-based, human; details: 500 μM BMAA, 23 hours
Description: MRC-5 cells were incubated in the presence and absence of 500 μM BMAA for 23 hours. After removing the medium, the cells were rinsed once with warm PBS and incubated in a solution of AO/EB then visualized using fluorescent microscopy as described previously (Tang, et al., Phytother Res 25, 417-423 (2010)).

[12] = tested on: zebrafish; assay: Zebrafish motor neuron development (fluorescent microscopy); format: in vivo, zebrafish (Dario rerio); details: eggs injected with L-BMAA, 30 hours; motor neuron length vs control P<0.0001
Description: as §1, §2

[13] = tested on: MRC-5 cells; assay: Protein-bound non-labeled BMAA in hydrolysed cell proteins by triple quadrupole LC/MS/MS; format: cell-based, human; details: BMAA 250-1000 μM with L-serine 250-1000 μM, or CHX
Description: After incubation with ^3H-BMAA or cold BMAA, cells were washed three times with PBS, lysed by freeze thawing in Triton-X-100 (0.1%) and cell proteins precipitated in TCA (5%). Protein pellets were washed three times with TCA (5%) and hydrolysed in boiling 6 M HCl at 110° C. for 16 hours as previously described (Mondo, et al., Mar Drugs 10, 509-520 (2012)). Protein pellets were freeze-dried and reconstituted in 20 mM HCl. Particulates were removed by centrifugation through […] membranes and the hydrolysate derivatized in AccQ·Tag (Waters Corporation, Australia). Amino acids were separated on a Waters C-18 column using a method and gradient as described previously (Mondo, et al., Mar Drugs 10, 509-520 (2012)). For recovery of radiolabel in hydrolysed samples, fractions were collected manually every minute for 40 minutes, diluted into 5 ml scintillant (Ultima Gold™ scintillant, Perkin Elmer) and disintegrations per minute (DPM) determined by LSC.
To further confirm that BMAA was present in cell proteins and incorporation was inhibited by L-serine, MRC-5 cells were incubated with a range of concentrations of BMAA (250-1000 μM) or BMAA with L-serine (250-1000 μM) and hydrolysed cell proteins were analyzed by tandem mass spectroscopy on a triple quadrupole LC/MS/MS. […]

[14] = tested on: HUVEC; assay: Incorporation of 3H-BMAA radiolabel into cell proteins with or without CHX; format: cell-based, human; details: 3H-BMAA 31.25 nM, CHX 2 μg/ml, 16 hours
Description: (§4) MRC-5 cells, a human lung fibroblast cell line (passage number 14-19), and SH-SY5Y cells, a human neuroblastoma cell-line (passage number 30-32), were maintained in DMEM, or DMEM/Hams F12 respectively containing 10% fetal bovine serum (FBS), 4 mM L-glutamine, 100 U/mL penicillin, and 100 μg/mL streptomycin at 37° C. in a humidified atmosphere of 5% CO2 and 95% air. Human umbilical vein endothelial cells (HUVEC) were harvested enzymatically with type II collagenase (Sigma-Aldrich) under sterile conditions as described by Minter (Minter, et al., Thromb Haemost 67, 718-723 (1992)) and established as primary cell cultures in M199 (Trace Biosciences, Sydney, Australia) containing 20% FBS, 4 mM L-glutamine, 0.5% endothelial cell growth promoter, 100 U/mL penicillin, and 100 μg/mL streptomycin. All media were prepared with endotoxin-free water (Baxter) and filtered with Zetapor filters (Cuno Life Sciences Division). Cells were seeded at 3×10^5 cells per well in 6 well plates and allowed to adhere overnight (16 hours) before treatment.
(§5) To determine if incorporation of radiolabel into proteins was protein synthesis dependent MRC-5, SH-SY5Y and HUVEC cells were incubated with ^3H-BMAA (31.25 nM) with or without CHX 2 μg/ml for 16 hours. The amount of radiolabel present in cell proteins in the CHM-treated cultures was expressed relative to that of control cultures, which was set at 100%. […]

[15] = tested on: SH-SY5Y cells; assay: as above; format: cell-based, human; details: 3H-BMAA 31.25 nM, CHX 2 μg/ml, 16 hours
Description: as §4, §5

CNC[C@H](N)C(=O)O [^3H-BMAA]
tissue distribution pattern [1]: a distribution pattern similar to that of a protein-forming amino acid

N[C@H](CO)C(=O)O [D-Serine, D-serine]
effect on incorporation of 3H-BMAA into protein ([2]; 3H-BMAA 31.25 nM, 250 μM D-serine): did not prevent incorporation

CNC[C@H](N)C(=O)O [BMAA, β-methylamino-L-alanine]
formation of autofluorescent bodies [3]: autofluorescent bodies were evident; also recorded: Autofluorescence was observed | swimming performance, time to fail [4]: significant impairment; also recorded: impairs zebrafish swimming performance | mortality [5]: 40% | crossing of the blood-brain barrier [6]: rapidly cross the blood-brain barrier | insertion into neuroproteins [6]: inserted into neuroproteins | zebrafish viability (survival) [7]: 74% | necrosis, LDH release [8]: no significant changes | necrosis, LDH release [9]: no significant changes | Annexin V staining (apoptosis) ([10]; 500 μM BMAA alone): increased staining; also recorded: significant increase | morphological changes and pale cells indicative of apoptosis [11]: increased number; also recorded: morphological changes | motor neuron development [12]: truncated neurons

C[C@@H]1C[C@@H]([C@H](O)CC2CC(=O)NC(=O)C2)C(=O)[C@@H](C)C1 [CHX, cycloheximide]
effect on incorporation of non-labeled BMAA into cell proteins [13]: inhibited | effect on amount of 3H-BMAA radiolabel in the protein fraction ([2]; 3H-BMAA 31.25 nM, CHX 2 μg/ml, relative to no CHX): significantly reduced; also recorded: inhibition of incorporation of radiolabel into cell protein | inhibition of incorporation of 3H-leucine into proteins, compared with 3H-BMAA ([2]; 3H-leucine 41 nM, CHX 2 μg/ml): to the same extent | effect on protein association of 3H-BMAA [14]: inhibited | effect on protein association of 3H-BMAA [15]: inhibited | effect on BMAA-induced Annexin V binding / apoptosis ([10]; 500 μM BMAA, co-incubation with CHX 2 μg/mL or L-serine 50 μM): abrogated; also recorded: significantly reduced
